pIC50: −log10 of the molar value. Where two headings read alike, the source gives them in different places.
Key:
Type in all cases: biochemical
[1] = biological target: T1, LATS1 (Homo sapiens, UniProt O95835); assay: RBC HotSpot kinase assay (33P-ATP, P81 filter-binding), LATS1; conditions: read-out: LATS1 IC50
T1 sequence (O95835 1-1130): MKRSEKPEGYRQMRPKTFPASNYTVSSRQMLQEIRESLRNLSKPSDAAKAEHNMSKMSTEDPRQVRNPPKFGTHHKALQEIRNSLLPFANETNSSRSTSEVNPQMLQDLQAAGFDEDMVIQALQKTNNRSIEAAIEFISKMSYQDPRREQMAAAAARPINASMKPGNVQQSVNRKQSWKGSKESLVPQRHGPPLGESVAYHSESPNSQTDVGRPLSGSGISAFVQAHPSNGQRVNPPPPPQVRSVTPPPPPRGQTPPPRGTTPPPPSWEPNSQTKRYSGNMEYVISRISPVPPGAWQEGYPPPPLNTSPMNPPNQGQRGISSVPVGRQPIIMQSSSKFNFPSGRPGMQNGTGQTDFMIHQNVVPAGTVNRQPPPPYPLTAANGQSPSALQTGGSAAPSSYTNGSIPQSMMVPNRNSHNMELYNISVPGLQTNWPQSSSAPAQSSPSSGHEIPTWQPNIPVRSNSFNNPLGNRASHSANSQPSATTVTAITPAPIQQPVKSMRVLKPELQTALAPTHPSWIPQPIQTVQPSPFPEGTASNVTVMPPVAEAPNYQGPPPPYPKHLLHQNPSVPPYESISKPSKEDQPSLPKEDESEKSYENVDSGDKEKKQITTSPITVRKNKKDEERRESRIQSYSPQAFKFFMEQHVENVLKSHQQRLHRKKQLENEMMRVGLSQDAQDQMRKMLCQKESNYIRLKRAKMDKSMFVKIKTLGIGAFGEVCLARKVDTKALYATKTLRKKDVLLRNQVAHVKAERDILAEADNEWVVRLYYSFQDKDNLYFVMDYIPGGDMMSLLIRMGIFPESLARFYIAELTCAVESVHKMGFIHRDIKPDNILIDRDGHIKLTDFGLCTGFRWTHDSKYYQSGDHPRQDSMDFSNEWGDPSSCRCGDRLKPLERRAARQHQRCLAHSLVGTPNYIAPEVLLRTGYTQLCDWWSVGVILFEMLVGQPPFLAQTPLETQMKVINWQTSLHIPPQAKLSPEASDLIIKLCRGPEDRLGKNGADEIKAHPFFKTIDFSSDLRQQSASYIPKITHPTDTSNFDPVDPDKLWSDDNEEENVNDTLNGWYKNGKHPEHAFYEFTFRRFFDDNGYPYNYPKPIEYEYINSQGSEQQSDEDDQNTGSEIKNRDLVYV
Outline: (§1)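 Kinase in Hepes pH 7.5 buffer with Mg2+, EGTA, Brij35, BSA, vanadate, DTT and 1% DMSO, plus required cofactors and substrate, was preincubated 20 min at room temperature with compound. Reaction was started with 33P-ATP and run 2 h, then detected by P81 filter binding. IC50 (nM) came from 10-point singlet curves.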

[2] = biological target: T2, LATS2 (Homo sapiens, UniProt Q9NRM7); assay: RBC HotSpot kinase assay (33P-ATP, P81 filter-binding), LATS2; conditions: read-out: LATS2 IC50
T2 sequence (Q9NRM7 1-1088): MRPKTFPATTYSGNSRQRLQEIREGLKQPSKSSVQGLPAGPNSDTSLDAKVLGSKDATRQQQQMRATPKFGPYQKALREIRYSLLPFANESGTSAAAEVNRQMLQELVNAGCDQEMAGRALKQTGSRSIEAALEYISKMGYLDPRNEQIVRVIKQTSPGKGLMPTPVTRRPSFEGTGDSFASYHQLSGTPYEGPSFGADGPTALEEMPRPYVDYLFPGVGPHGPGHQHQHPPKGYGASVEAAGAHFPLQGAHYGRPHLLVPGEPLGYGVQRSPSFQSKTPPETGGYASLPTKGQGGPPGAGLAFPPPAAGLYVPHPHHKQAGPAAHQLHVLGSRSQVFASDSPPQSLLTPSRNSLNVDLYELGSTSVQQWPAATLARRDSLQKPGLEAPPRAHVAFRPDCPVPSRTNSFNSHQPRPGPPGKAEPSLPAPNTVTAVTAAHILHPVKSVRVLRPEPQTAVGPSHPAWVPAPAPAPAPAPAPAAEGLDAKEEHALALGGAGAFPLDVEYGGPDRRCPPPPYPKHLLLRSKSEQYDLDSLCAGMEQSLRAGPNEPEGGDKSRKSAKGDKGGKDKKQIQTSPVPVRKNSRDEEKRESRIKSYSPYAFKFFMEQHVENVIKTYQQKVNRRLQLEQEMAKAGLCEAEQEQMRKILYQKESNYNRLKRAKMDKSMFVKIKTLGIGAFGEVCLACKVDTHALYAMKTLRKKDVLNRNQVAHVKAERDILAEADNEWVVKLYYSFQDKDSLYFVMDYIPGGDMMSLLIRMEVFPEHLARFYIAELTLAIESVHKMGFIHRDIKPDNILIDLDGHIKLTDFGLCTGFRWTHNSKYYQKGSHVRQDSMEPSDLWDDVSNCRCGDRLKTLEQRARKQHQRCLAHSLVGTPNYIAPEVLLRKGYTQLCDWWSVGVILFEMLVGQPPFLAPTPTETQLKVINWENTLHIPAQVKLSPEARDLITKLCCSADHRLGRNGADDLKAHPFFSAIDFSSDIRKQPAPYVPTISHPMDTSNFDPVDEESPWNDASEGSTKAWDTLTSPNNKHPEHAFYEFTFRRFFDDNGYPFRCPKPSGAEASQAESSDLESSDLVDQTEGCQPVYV
Outline: as §1

[3] = biological target: AKT (Homo sapiens, UniProt P31749); assay: RBC HotSpot kinase assay (33P-ATP, P81 filter-binding), AKT; conditions: read-out: AKT IC50
Outline: as §1

[4] = Table 28, biochemical kinase assay
[5] = Table 32, biochemical kinase assay

AKT, sequence (P31749 whole entry): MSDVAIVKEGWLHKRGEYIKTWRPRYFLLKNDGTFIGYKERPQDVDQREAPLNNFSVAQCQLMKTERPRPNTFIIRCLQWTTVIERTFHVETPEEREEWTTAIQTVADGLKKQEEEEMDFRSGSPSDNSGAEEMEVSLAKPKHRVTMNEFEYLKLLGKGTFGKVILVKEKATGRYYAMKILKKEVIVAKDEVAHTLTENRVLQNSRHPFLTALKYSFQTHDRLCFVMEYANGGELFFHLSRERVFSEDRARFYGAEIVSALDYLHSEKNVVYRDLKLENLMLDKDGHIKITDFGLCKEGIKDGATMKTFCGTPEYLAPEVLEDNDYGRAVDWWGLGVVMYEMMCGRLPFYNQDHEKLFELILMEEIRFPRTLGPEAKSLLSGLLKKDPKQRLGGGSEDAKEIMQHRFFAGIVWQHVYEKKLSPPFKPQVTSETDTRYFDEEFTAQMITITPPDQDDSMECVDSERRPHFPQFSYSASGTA

| Structure (SMILES) | pIC50 [1, 4] | pIC50 [2, 4] | pIC50 [3, 4] | pIC50 [1, 5] | pIC50 [2, 5] | pIC50 [3, 5] |
| --- | --- | --- | --- | --- | --- | --- |
| Cc1cc(-c2ccnc3[nH]ccc23)cc(F)c1[C@@]1(O)[C@H](C)CN(C2CCS(=O)(=O)CC2)C[C@@H]1C [Compound 308, 4-((3S,4s,5R)-4-(2-fluoro-6-methyl-4-(1H-pyrrolo[2,3-b]pyridin-4-yl)phenyl)-4-hydroxy-3,5-dimethylpiperidin-1-yl)tetrahydro-2H-thiopyran 1,1-dioxide] | 8.00 | 8.08 | 5.96 | – | – | – |
| COC(=O)c1c[nH]c2nccc(-c3ccc([C@@]4(O)[C@H](C)CN(C(=O)CN)C[C@@H]4C)c(C)c3)c12 [Compound 311, methyl 4-(4-((3S,4s,5R)-1-glycyl-4-hydroxy-3,5-dimethylpiperidin-4-yl)-3-methylphenyl)-1H-pyrrolo[2,3-b]pyridine-3-carboxylate] | 8.16 | 8.44 | 5.98 | – | – | – |
| Cc1cc(-c2ccnc3[nH]cc(C)c23)cc(F)c1[C@@]1(O)[C@H](C)CN(C(=O)CN)C[C@@H]1C [Compound 314, 2-amino-1-((3S,4s,5R)-4-(2-fluoro-6-methyl-4-(3-methyl-1H-pyrrolo[2,3-b]pyridin-4-yl)phenyl)-4-hydroxy-3,5-dimethylpiperidin-1-yl)ethan-1-one] | 8.80 | 8.32 | 6.60 | – | – | – |
| CN[C@@H](C)C(=O)N1C[C@@H](C)[C@](O)(c2c(C)cc(-c3ccnc4[nH]cc(F)c34)cc2F)[C@@H](C)C1 [Compound 315, (S)-1-((3S,4R,5R)-4-(2-fluoro-4-(3-fluoro-1H-pyrrolo[2,3-b]pyridin-4-yl)-6-methylphenyl)-4-hydroxy-3,5-dimethylpiperidin-1-yl)-2-(methylamino) propan-1-one] | 7.94 | 8.24 | 5.87 | – | – | – |
| CN[C@H](C)C(=O)N1C[C@@H](C)[C@](O)(c2c(C)cc(-c3ccnc4[nH]cc(F)c34)cc2F)[C@@H](C)C1 [Compound 316, (R)-1-((3S,4S,5R)-4-(2-fluoro-4-(3-fluoro-1H-pyrrolo[2,3-b]pyridin-4-yl)-6-methylphenyl)-4-hydroxy-3,5-dimethylpiperidin-1-yl)-2-(methylamino) propan-1-one] | 7.92 | 8.17 | 5.86 | – | – | – |
| Cc1cc(-c2ccnc3[nH]cc(Cl)c23)cc(F)c1[C@@]1(O)[C@H](C)CN(C(=O)CN)C[C@@H]1C [Compound 317, 2-amino-1-((3S,4s,5R)-4-(4-(3-chloro-1H-pyrrolo[2,3-b]pyridin-4-yl)-2-fluoro-6-methylphenyl)-4-hydroxy-3,5-dimethylpiperidin-1-yl)ethan-1-one] | 8.12 | 8.42 | 6.73 | – | – | – |
| Cc1cc(-c2ccnc3[nH]cc(-c4cccnc4)c23)cc(F)c1[C@@]1(O)[C@H](C)CN(C(=O)CN)C[C@@H]1C [Compound 318, 2-amino-1-((3S,4s,5R)-4-(2-fluoro-6-methyl-4-(3-(pyridin-3-yl)-1H-pyrrolo[2,3-b]pyridin-4-yl)phenyl)-4-hydroxy-3,5-dimethylpiperidin-1-yl)ethan-1-one] | 8.39 | 8.89 | 5.85 | – | – | – |
| NCC(O)(c1ccc(Cl)cc1)c1ccc(-c2ccnc3[nH]cc(Cl)c23)cc1 (stereo not drawn) [Compound 1003, 2-amino-1-(4-(3-chloro-1H-pyrrolo[2,3-b]pyridin-4-yl)phenyl)-1-(4-chlorophenyl) ethan-1-ol] | – | – | – | 7.50 | 7.92 | 8.49 |
| NCC(O)(c1ccc(Cl)cc1)c1ccc(-c2ccnc3[nH]cc(Cl)c23)nc1 (stereo not drawn) [Compound 1010, 2-amino-1-(6-(3-chloro-1H-pyrrolo[2,3-b]pyridin-4-yl)pyridin-3-yl)-1-(4-chlorophenyl)ethan-1-ol] | – | – | – | 9.30 | > 9.30 | > 9.30 |
| NCC(O)(c1ccc(Cl)cc1)c1ccc(-c2ccnc3[nH]cc(-c4ccccc4)c23)nc1 (stereo not drawn) [Compound 1012, 2-amino-1-(4-chlorophenyl)-1-(6-(3-phenyl-1H-pyrrolo[2,3-b]pyridin-4-yl)pyridin-3-yl) ethan-1-ol] | – | – | – | 8.07 | 8.08 | 6.90 |
| CC(=O)NCC(O)(c1ccc(Cl)cc1)c1ccc(-c2ccnc3[nH]ccc23)cc1 (stereo not drawn) [Compound 1014, N-(2-(4-(1H-pyrrolo[2,3-b]pyridin-4-yl)phenyl)-2-(4-chlorophenyl)-2-hydroxyethyl)acetamide] | – | – | – | 8.43 | 8.29 | 7.76 |
| O=C(CO)NCC(O)(c1ccc(Cl)cc1)c1ccc(-c2ccnc3[nH]ccc23)cc1 (stereo not drawn) [Compound 1015, N-(2-(4-(1H-pyrrolo[2,3-b]pyridin-4-yl)phenyl)-2-(4-chlorophenyl)-2-hydroxyethyl)-2-hydroxyacetamide] | – | – | – | 8.40 | 8.43 | 8.23 |
| O=C(CO)NCC(O)(c1ccc(Cl)cc1)c1ccc(-c2ccnc3[nH]cc(F)c23)cc1 (stereo not drawn) [Compound 1016, N-(2-(4-chlorophenyl)-2-(4-(3-fluoro-1H-pyrrolo[2,3-b]pyridin-4-yl)phenyl)-2-hydroxyethyl)-2-hydroxyacetamide] | – | – | – | 8.15 | 8.40 | 8.13 |
| O=C(CO)NCC(O)(c1ccc(Cl)cc1)c1ccc(-c2ccnc3[nH]cc(Cl)c23)cc1 (stereo not drawn) [Compound 1017, N-(2-(4-(3-chloro-1H-pyrrolo[2,3-b]pyridin-4-y1)phenyl)-2-(4-chlorophenyl)-2-hydroxyethyl)-2-hydroxyacetamide] | – | – | – | 8.27 | 8.55 | 8.55 |
| CC(C)(O)C(=O)NCC(O)(c1ccc(Cl)cc1)c1ccc(-c2ccnc3[nH]ccc23)cc1 (stereo not drawn) [Compound 1018, N-(2-(4-(1H-pyrrolo[2,3-b]pyridin-4-yl)phenyl)-2-(4-chlorophenyl)-2-hydroxyethyl)-2-hydroxy-2-methylpropanamide] | – | – | – | 7.73 | 8.00 | 7.13 |
| CN(C)CC(=O)NCC(O)(c1ccc(Cl)cc1)c1ccc(-c2ccnc3[nH]ccc23)cc1 (stereo not drawn) [Compound 1019, N-(2-(4-(1H-pyrrolo[2,3-b]pyridin-4-yl)phenyl)-2-(4-chlorophenyl)-2-hydroxyethyl)-2-(dimethylamino) acetamide] | – | – | – | 8.40 | 8.25 | 8.27 |
